The values that follow come from patent publication US20110162092A1, “COMPOSITION COMPRISED OF AKAP12 AND USES OF AKAP12 MUTANT ZEBRAFISH AS AN ANIMAL MODEL” (SNU RDB FOUNDATION, priority 2008, published 2011).

The subject of data set [1] is Human Umbilical Vein Endothelial Cells (HUVEC). The data set is described as follows: In vitro permeability assay using HUVEC (RITC-labeled dextran, transwell). The data set is classed as cell-based. As to conditions: AKAP12 siRNA group treated with ROCKOUT, 15 minutes incubation.
Data set [2] has as its system vein endothelial cells of the AKAP12 knockdown zebrafish. The experiment in a line: Movement of vein endothelial cells of AKAP12 knockdown zebrafish treated with RhoA signal inhibitor. The data set is classed as in vivo. As to conditions: 200 uM, 44 hours after fertilization.
Another data set concerns ve-cadherin. The experiment in a line: ve-cadherin expression in HUVEC by western-blotting and immunocytochemistry. As to conditions: treated with both siRNA regarding AKAP12 and ROCKOUT. The data set is classed as cell-based, human. The method, then:
To be specific, in the western-blotting, first, cells were dissolved in lysis buffer containing 10 mM HEPES (pH 7.9), 400 mM NaCl, 0.1 mM EDTA, 5% glycerol, 1 mM DTT (D1-dithiothreitol) and protease inhibitor cocktail, and the proteins in cells were quantified using BCA. From the whole cell lysate prepared as explained above, the proteins in cells were isolated according to molecular weight sizes using sodium dodecyl sulfate-polyacrylamide gel electrophoresis, and the proteins were moved to the polyvinyldifluoride membrane (Millipore). After that, blocking was performed, and the primary antibody was treated overnight (for 16 hours) at 4° C. On the next day, secondary antibodies regarding the primary antibodies were treated at room temperature for 2 hours, respectively, and detected using ECL PLUS (Amersham). As for the primary antibodies, VE-cadherin (Santa Cruz Biotechnology); F-actin (Sigma) were used.
As for the immunochemistry, first, cells were seeded in a 0.1% gelatin-coated slide, rinsed with cold PBS, and fixed for 10 minutes at room temperature with 4% paraformaldehyde. After that, the cells were rinsed again three times with PBS, treated with 0.5% Triton X-100 for 5 minutes, rinsed with PBS-T and underwent blocking at room temperature for 30 minutes with 0.1% blocking solution (Roche). […]

The subject of data set [3] is zebrafish AKAP12 alpha form. The data set is described as follows: Vessel defects of AKAP12 knockdown tg(fli:egfp) zebrafish. The data set is classed as in vivo. The following applies: 2 ng morpholino; 2000 kDa tetramethylrhodamine-dextran within 48 to 60 hours. How it is done: The present inventors knocked down the zebrafish AKAP12 alpha and beta forms using the transgenic zebrafish ‘tg(fli:egfp)’ in which green fluoresces selectively in the endothelioyte of the vessels, and observed the defect pattern in the vessels. To be specific, the inventors knocked down the zebrafish AKAP12 alpha and beta forms by microinjecting 2 ng alpha) and 7.5 ng (beta) of morpholino for zebrafish KAAP12 alpha and beta forms, into the transgenic zebrafish ‘fli:egfp’, respectively, and within 48 to 60 hours, microinjected 25 mg/ml of red-fluorescent lysine-fixable tetramethylrhodamine-dextran, 2000 kDa (molecular probes) and observed through the LSM 510 META NLO confocal microscope (Carl Zeiss, Germany).

A further data set deals with AKAP12 alpha form mRNA. The data set is described as follows: Zebrafish defect patterns in accordance with morpholino amount, alpha form. The data set is classed as in vivo. The source says: (§1) The present inventors knocked down AKAP12 alpha form mRNA and beta form mRNA using morpholino for zebrafish AKAP12 alpha and beta forms, and observed the defect patterns in accordance with the amounts of morpholino, respectively.

Data set [4] deals with zebrafish AKAP12 alpha form mRNA. The data set is described as follows: Genetic defect (phenotype) of zebrafish after microinjecting morpholino, alpha form. The data set is classed as in vivo. From the text:
(§2) The present inventors prepared morpholino for the zebrafish AKAP12 alpha form mRNA and zebrafish AKAP12 beta form mRNA knockdown. The preparation of the morpholino was ordered to Gene Tools LLC. The method for morpholino preparation is written in Summerton, J. et al., Anti sense & Nucleic Acid Drug Development 7: 187-95, 1997. The prepared morpholino was so prepared to block the characteristic variant regions of each of the alpha and beta forms from binding to the site of splicing and thus block splicing and developing into mature mRNA, in which the alpha form morpholino was so designed to bind adjacent to 339th base of the AKAP12 alpha form as the sequence of […] (SEQ. ID. NO. 7) 25-mer, and the beta form morpholino was so designed to bind adjacent to the 227th base of the AKAP12 beta form as the sequence of […] (SEQ. ID. NO. 8) 25-mer (see FIG. 1).
(§3) The present invention knocked down zebrafish AKAP12 mRNA by microinjecting the prepared morpholino of <Example 3> into the zebrafish and observed the phenotype.
(§4) First, the inventors microinjected 7 ng and 10 ng of morpholino for AKAP12 mRNA alpha form, and microinjected 7.5 ng of morpholino for AKAP12 mRNA beta form.
(§5) Further, after injecting 3.7 ng, 7.5 ng and 10 ng of morpholino for zebrafish AKAP12 alpha and beta forms, the present inventors could confirm that the genetic defect appears in the beta form at about 7.5 ng and alpha form at about 3.7 ng (see FIG. 4).

The subject of data set [5] is zebrafish AKAP12 alpha form. The data set is described as follows: Heart defect of AKAP12 alpha form knockdown tg(cmlc:egfp) zebrafish. The data set is classed as in vivo. As to conditions: 3.7 ng morpholino, 1.5 days later. The method, then: The present inventors knocked down zebrafish AKAP12 alpha form using the transgenic zebrafish ‘tg(cmlc:egfp)’ in which green fluoresces characteristically to the light chain of the heat muscles, and observed the heart defects of the zebrafish. That is, the inventors knocked down the zebrafish AKAP12 alpha form by microinjecting 3.7 ng of morpholino for zebrafish AKAP12 alpha form into the transgenic zebrafish (‘tg(cmlc:egfp)’) embryos, and observed the hearts of the zebrafish after 1.5 days later using the LSM 510 META NLO confocal microscope Carl Zeiss, Germany).

In data set [6] the test system is zebrafish AKAP12 alpha form. The experiment in a line: Hemorrhage of AKAP12 alpha form knockdown zebrafish. The data set is classed as in vivo. From the text:
(§6) The present inventors observed the embryos of […] AKAP12 alpha and beta form knockdown zebrafish, and as a result, could observe the bleeding in the 2 to 3 day-old zebrafish.

Data set [7] relates to zebrafish AKAP12 alpha form. The data set is described as follows: Micro-vasculature defect in brains of AKAP12 alpha form knockdown tg(fli:egfp) zebrafish. As to conditions: 3 ng morpholino; 10 kDa tetramethylrhodamine-dextran after 3 days. The data set is classed as in vivo. How it is done: The present inventor knocked down the zebrafish AKAP12 alpha form using the transgenic zebrafish ‘tg(fli:egfp)’ in which green fluoresces selectively in the vein endothelial cells, and observed the defect pattern of the micro-vasculatures in brains. To be specific, the inventors knocked down the zebrafish AKAP12 alpha form by microinjecting 3 ng of morpholino for zebrafish AKAP12 alpha form into the transgenic zebrafish (fli:egfp) embryos, and then after 3 days, microinjected 25 mg/ml of red-fluorescent lysine-fixable tetramethylrhodamine-dextran, 10 kDa through the common cardinal vein of the zebrafish, and then observed through the LSM 510 META NLO confocal microscope (Carl Zeiss, Germany).

The subject of data set [8] is zebrafish AKAP12 beta form mRNA. The data set is described as follows: Genetic defect (phenotype) of zebrafish after microinjecting morpholino, beta form. The data set is classed as in vivo.
From the text: as §2, §3, §4, §5

A further data set concerns AKAP12 beta form mRNA. The experiment in a line: Zebrafish defect patterns in accordance with morpholino amount, beta form. The data set is classed as in vivo.
From the text: as §1

In data set [9] the test system is zebrafish AKAP12 beta form. The data set is described as follows: Hemorrhage of AKAP12 beta form knockdown zebrafish. As to conditions: 7.5 ng injected, day 3. The data set is classed as in vivo.
From the text: as §6

Where [10] appears, read: morpholino only, control group of rescue test.

With `c1ccc2c(-c3ccncc3)c[nH]c2c1` [ROCKOUT], the RITC permeability result in [1] is “decreased permeability”. Also, the “movement of vein endothelial cells” value in data set [2] was “the excessive movement of the vein endothelial cells slowed”. Also, in the data set on ve-cadherin, the expression of ve-cadherin entry is listed as “the expression of ve-cadherin increased back”.
With “morpholino for zebrafish AKAP12 alpha form: 25-mer morpholino TCTTACCTGTTAGAGTTATTGTCCC (SEQ. ID. NO. 7), binds adjacent to 339th base of AKAP12 alpha form, blocks splicing (all phosphorodiamidate morpholino (PMO))”, in data set [3], the “defect pattern in the vessels, dextran leakage” value was “non-uniform micro-vasculature in the brains and also the red lysine-fixable tetramethylrhodamine-dextran leaked out of the green vessel”. For the same compound, the defect pattern result in the data set with AKAP12 alpha form mRNA (1 ng and 2 ng) is “bleeding only”; with AKAP12 alpha form mRNA (4 ng and more), “decreasing bleeding due to severe defects of hearts and other veins”; in the data set on AKAP12 alpha form mRNA (3 and 4 ng) it was “both the bleeding and defects in heart and trunk veins”. In addition, the “mRNA expression pattern of AKAP12 alpha form by RT-PCR” value in [4] (7 ng and 10 ng injected, by degree of defect) is given as “the zebrafish with severer degree of defects had lower degree of mRNA expression”. Further, the “phenotype: tail portions and mobility” value in data set [4] (7 ng and 10 ng microinjected) is “crooked or shortened tail portions and abnormal mobility”. Also, the defect patterns result was “crooked trunks and bleeding” in [4] (setting [10]); “defect patterns including crooked and shortened tail and deformed hearts” in data set [4] (only 4 ng morpholino, control group of rat mRNA rescue). The “heart shape (atriums and ventricles)” value in data set [5] was “elongated atriums and ventricles”. Moreover, in data set [5], the heartbeats entry was “non-uniform and weak heartbeats”. Moreover, in data set [6] (3 ng injected, day 3), the “rate of zebrafish showing hemorrhage” value is given as “approximately 50%”. Also, the “rate of zebrafish with hemorrhage versus amount” value in [6] (1, 2 and 3 ng in sequence) is “hemorrhage increased as the amount of injected morpholino increased”. For the same compound, the “defect pattern of micro-vasculatures in brains, dextran distribution” value in data set [7] is “non-uniform micro-vasculature in brains and also the red lysine-fixable tetramethylrhodamine-dextran was distributed around the green micro-vasculatures”.
“morpholino for zebrafish AKAP12 beta form: 25-mer morpholino TACCTTGCCATCTGCGGTTTCTCCA (SEQ. ID. NO. 8), binds adjacent to 227th base of AKAP12 beta form, blocks splicing (all phosphorodiamidate morpholino (PMO))”: the “amount of morpholino at which the genetic defect appears” value in data set [8] (3.7 ng, 7.5 ng and 10 ng injected) is given as “about 7.5 ng”. Also, the “phenotype: tail portions and mobility” value in data set [8] (7.5 ng microinjected) was “crooked or shortened tail portions and abnormal mobility”. Besides, in data set [8] (setting [10]), the defect patterns entry was “crooked trunks and bleeding”. Further, the defect pattern entry was “both the bleeding and defects of heat and trunk veins concurrently” with AKAP12 beta form mRNA (7.5 ng and 8 ng); “only the defects in heart and trunk veins” in the data set on AKAP12 beta form mRNA (9 ng or more). The “rate of zebrafish showing hemorrhage” value in data set [9] is recorded as “approximately 27%”.
